Data published in US20050100902A1, “5-cyano-1h-indole derivatives as antagonist of the inerleukine-8 receptors” (priority 2001, published 2005).

melting point: 158 to 160 °C
Compound: N#Cc1ccc2[nH]c(-c3ccc(Cl)c(Cl)c3)c(CCCC(=O)O)c2c1 [Example 1, 2-(3,4-dichlorophenyl)-5-cyano-1H-indole-3-butanoic Acid]
